These results are taken from ChEMBL document CHEMBL4339233, “Structure-activity relationship study of antitrypanosomal chalcone derivatives using multivariate analysis” (Bioorg Med Chem Lett, 2019).

Data set [1] is described as follows: Cytotoxicity in mouse NCTC-929 cells assessed as reduction in cell viability incubated for 48 hrs by MTT assay. The class given is cell-based. The following applies: NCTC-929 (L929) cells. A general note: Tetrazolium dyes change colour on reduction, which living cells bring about.
For another data set, the system named is Trypanosoma cruzi. The data set is described as follows: Antitrypanosomal activity against Trypanosoma cruzi Y trypomastigotes infected in LLC-MK2-ATCC CCL7 cells assessed as reduction in parasite growth incubated for 24 hrs by Alamar blue dye based assay. The class given is functional, organism-based.
Data set [2] is described as follows: Selectivity index, ratio of CC50 for cytotoxicity in mouse NCTC-929 cells to EC50 for Antitrypanosomal activity against Trypanosoma cruzi trypomastigotes infected in LLC-MK2-ATCC CCL7 cells. Format: toxicity, cell-based. The following applies: read-out: Ratio CC50/EC50.

In general, CC50 refers to the concentration at which the toxic effect on the cells reaches its halfway point. The EC50 is the concentration needed to bring the measured effect to its halfway point. Consider `C=CCOc1ccccc1C(=O)/C=C/c1ccccc1`, for which the CC50 at 48 h in data set [1] amounted to 77.6 µM. Also, in the data set with Trypanosoma cruzi, the EC50 was found to be 10.6 µM. For the same molecule, in data set [2], the selectivity ratio amounted to 7.3.

As to `O=C(/C=C/c1ccc2c(c1)OCO2)c1ccc(Cl)cc1`, in data set [1], the CC50 at 48 h was over 200 µM. In the data set on Trypanosoma cruzi, the half-maximal effective concentration (EC50) was determined as 60 µM.

In the case of `CN(C)c1ccc(CCC(=O)c2cccc(O)c2)cc1`, the CC50 at 48 h in data set [1] is over 200 µM. Further, the EC50 with Trypanosoma cruzi was over 100 µM.

As for `CN(C)c1ccc(/C=C/C(=O)c2ccccc2O)cc1`, in data set [1], the CC50 at 48 h was determined as 50.4 µM. Also, the EC50 in the data set on Trypanosoma cruzi is over 100 µM.

In the case of `O=C(CCc1ccccc1)c1ccc([N+](=O)[O-])cc1`, in data set [1], the CC50 at 48 h is over 200 µM. Moreover, in the data set on Trypanosoma cruzi, the EC50 was over 100 µM.

For `COc1ccc(C(=O)/C=C/c2ccc([N+](=O)[O-])cc2)cc1`, the CC50 at 48 h in data set [1] is over 200 µM. Further, the EC50 in the data set with Trypanosoma cruzi is over 100 µM.

For `Oc1ccccc1C(O)CCc1ccccc1` (racemic), the CC50 at 48 h in data set [1] was over 200 µM. Moreover, the 50% effective concentration (EC50) in the data set on Trypanosoma cruzi is over 100 µM.

On to `CN(C)c1ccc(/C=C/C(=O)c2ccc([N+](=O)[O-])cc2)cc1`, for which the CC50 at 48 h in data set [1] was over 200 µM. In addition, in the data set on Trypanosoma cruzi, the EC50 is over 100 µM.

For `COc1cc(CCC(=O)c2ccc(-c3ccccc3)cc2)cc(OC)c1OC`, the CC50 at 48 h in data set [1] is over 200 µM. Besides, the EC50 in the data set with Trypanosoma cruzi is over 100 µM.

In the case of `COc1cc(CCC(O)c2ccc(-c3ccccc3)cc2)cc(OC)c1OC` (racemic), the CC50 at 48 h in data set [1] is 95.6 µM. In addition, the EC50 in the data set on Trypanosoma cruzi was found to be 28.3 µM. In data set [2], the selectivity ratio worked out at 3.4.

As to `O=C(/C=C/c1ccccc1)c1cccc(O)c1`, in data set [1], the CC50 at 48 h is 29.9 µM. Besides, in the data set with Trypanosoma cruzi, the concentration giving a half-maximal response (EC50) was found to be 26 µM. The selectivity ratio in data set [2] turned out to be 1.1.

Take `COc1ccc(C(=O)/C=C/c2ccc(Cl)cc2)cc1`: the CC50 at 48 h in data set [1] was found to be 120 µM. Also, the EC50 with Trypanosoma cruzi is over 100 µM.

Regarding `CN(C)c1ccc(/C=C/C(=O)c2cccc(N)c2)cc1`, in data set [1], the CC50 at 48 h worked out at 101 µM. In addition, the EC50 with Trypanosoma cruzi is over 100 µM.

As to `O=C(/C=C/c1ccccc1)c1ccccc1` [CHALCONE], the CC50 at 48 h in data set [1] turned out to be 89.3 µM. Besides, the EC50 in the data set on Trypanosoma cruzi is 26.9 µM. Moreover, the selectivity ratio in data set [2] came to 3.3.

For the molecule `O=C(Cn1ccnc1[N+](=O)[O-])NCc1ccccc1` [BENZNIDAZOLE], in data set [1], the CC50 at 48 h is over 200 µM. Besides, in the data set on Trypanosoma cruzi, the EC50 was 16.5 µM.

In the case of `COc1ccc(C(=O)/C=C/c2ccccc2)cc1` [4'-METHOXYCHALCONE], in data set [1], the CC50 at 48 h was determined as 50.4 µM. Moreover, in the data set on Trypanosoma cruzi, the EC50 is over 100 µM.

Take `CN(C)c1ccc(/C=C/C(=O)c2ccc(Cl)cc2)cc1`: the CC50 at 48 h in data set [1] was over 200 µM. The EC50 in the data set on Trypanosoma cruzi is over 100 µM.

As for `O=C(/C=C/c1ccc2c(c1)OCO2)c1ccccc1O`, the CC50 at 48 h in data set [1] came to 140 µM. Also, in the data set with Trypanosoma cruzi, the EC50 was over 100 µM.

`C=CCOc1ccccc1C(=O)/C=C/c1ccc2c(c1)OCO2`: in data set [1], the CC50 at 48 h turned out to be 82.3 µM. Moreover, the EC50 with Trypanosoma cruzi came out at 18.9 µM. In addition, the selectivity ratio in data set [2] turned out to be 4.3.

In the case of `O=C(/C=C/c1ccc2c(c1)OCO2)c1ccccc1`, the CC50 at 48 h in data set [1] worked out at 100 µM. The EC50 in the data set on Trypanosoma cruzi came to 60.9 µM. In addition, the selectivity ratio in data set [2] was determined as 1.6.

On to `O=C(/C=C/c1ccc2c(c1)OCO2)c1ccc([N+](=O)[O-])cc1`, for which, in data set [1], the CC50 at 48 h was over 200 µM. Moreover, in the data set on Trypanosoma cruzi, the EC50 is over 100 µM.

For the molecule `OC(CCc1ccc2c(c1)OCO2)c1ccc(Cl)cc1` (racemic), in data set [1], the CC50 at 48 h is over 200 µM. Besides, the EC50 in the data set with Trypanosoma cruzi was over 100 µM.

As to `O=C(/C=C/c1ccc2c(c1)OCO2)c1cccc(O)c1`, the CC50 at 48 h in data set [1] turned out to be 24.5 µM. Further, the EC50 in the data set with Trypanosoma cruzi came out at 26.5 µM. Further, the selectivity ratio in data set [2] is 1.

On to `CN(C)c1ccc(/C=C/C(=O)c2ccccc2)cc1`, for which the CC50 at 48 h in data set [1] stood at 117 µM. For the same molecule, the EC50 in the data set with Trypanosoma cruzi is 73.2 µM. Besides, in data set [2], the selectivity ratio worked out at 1.6.

As to `CN(C)c1ccc(CCC(O)c2cccc(O)c2)cc1` (racemic), in data set [1], the cytotoxic concentration (CC50) at 48 h was over 200 µM. Besides, the EC50 in the data set with Trypanosoma cruzi was over 100 µM.

For the molecule `O=[N+]([O-])c1ccc(C(O)CCc2ccccc2)cc1` (racemic), in data set [1], the CC50 at 48 h is over 200 µM. In addition, the EC50 in the data set with Trypanosoma cruzi is over 100 µM.

As to `O=C(CCc1ccc2c(c1)OCO2)c1ccc(Cl)cc1`, the CC50 at 48 h in data set [1] was over 200 µM. Further, in the data set on Trypanosoma cruzi, the EC50 was over 100 µM.

Regarding `O=C(/C=C/c1ccccc1)c1ccc(-c2ccccc2)cc1`, the cytotoxic concentration (CC50) at 48 h in data set [1] was over 200 µM. In the data set with Trypanosoma cruzi, the EC50 was over 100 µM.

For `CN(C)c1ccc(/C=C/C(=O)c2ccc(-c3ccccc3)cc2)cc1`, the CC50 at 48 h in data set [1] was over 200 µM. Besides, the EC50 in the data set with Trypanosoma cruzi is over 100 µM.

On to `O=C(/C=C/c1ccccc1)c1ccccc1O` [2'-HYDROXYCHALCONE], for which, in data set [1], the CC50 at 48 h worked out at 79.5 µM. Moreover, the EC50 in the data set with Trypanosoma cruzi turned out to be 28.8 µM. Besides, the selectivity ratio in data set [2] was 2.8.

With `O=C(/C=C/c1ccccc1)c1ccc([N+](=O)[O-])cc1`, in data set [1], the CC50 at 48 h was 127 µM. Moreover, the EC50 in the data set with Trypanosoma cruzi came to 13.9 µM. The selectivity ratio in data set [2] is 9.1.

For the molecule `COc1ccc(C(=O)/C=C/c2ccc(N(C)C)cc2)cc1`, the CC50 at 48 h in data set [1] is over 200 µM. Moreover, the half-maximal effective concentration (EC50) with Trypanosoma cruzi was over 100 µM.

Consider `CN(C)c1ccc(/C=C/C(=O)c2cccc(O)c2)cc1`, for which the CC50 at 48 h in data set [1] was over 200 µM. Besides, the EC50 in the data set on Trypanosoma cruzi is 28.6 µM. Moreover, the selectivity ratio in data set [2] is over 7.

`COc1cc(/C=C/C(=O)c2ccc(-c3ccccc3)cc2)cc(OC)c1OC`: the CC50 at 48 h in data set [1] worked out at 29 µM. Also, the EC50 with Trypanosoma cruzi is 3.3 µM. In data set [2], the selectivity ratio came to 8.9.

Take `COc1ccc(C(=O)/C=C/c2ccc3c(c2)OCO3)cc1`: the CC50 at 48 h in data set [1] is over 200 µM. Besides, the EC50 in the data set on Trypanosoma cruzi was over 100 µM.

In the case of `COc1cc(/C=C/C(=O)c2ccccc2)cc(OC)c1OC`, the CC50 at 48 h in data set [1] was 27.3 µM. Besides, the EC50 with Trypanosoma cruzi came to 18.4 µM. Besides, the selectivity ratio in data set [2] was 1.5.
